Experimental data as given in patent publication US8263606B2 (Xenon Pharmaceuticals Inc., priority 2008, dated 2012).

How the values were obtained:
[1] = system: sodium channel; assay: Guanidine influx assay (14C-guanidine radiotracer flux, in vitro); type: cell-based, human or rat; conditions: guanidine influx assay using a known cell line that expresses a sodium channel
How it was run: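 Cells stably expressing human or rat sodium channels (~100,000/well, 20–24 h) were exposed in low-sodium choline buffer to test agent plus aconitine activator and 14C-guanidine at ambient temperature. Intracellular 14C-guanidine was counted by scintillation; IC50 fitted by 4-parameter logistic over half-dilutions around 1 μM.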

[2] = molecular target: CYP3A4 (Homo sapiens, UniProt P08684); assay: Cytochrome P450 (CYP450) Inhibition Assay, CYP3A4 (Vivid fluorescence, BOMCC substrate); conditions: human, P450 Baculosomes (recombinant CYP3A4), probe BOMCC (Vivid substrate)
Sequence of CYP3A4 (P08684 whole entry): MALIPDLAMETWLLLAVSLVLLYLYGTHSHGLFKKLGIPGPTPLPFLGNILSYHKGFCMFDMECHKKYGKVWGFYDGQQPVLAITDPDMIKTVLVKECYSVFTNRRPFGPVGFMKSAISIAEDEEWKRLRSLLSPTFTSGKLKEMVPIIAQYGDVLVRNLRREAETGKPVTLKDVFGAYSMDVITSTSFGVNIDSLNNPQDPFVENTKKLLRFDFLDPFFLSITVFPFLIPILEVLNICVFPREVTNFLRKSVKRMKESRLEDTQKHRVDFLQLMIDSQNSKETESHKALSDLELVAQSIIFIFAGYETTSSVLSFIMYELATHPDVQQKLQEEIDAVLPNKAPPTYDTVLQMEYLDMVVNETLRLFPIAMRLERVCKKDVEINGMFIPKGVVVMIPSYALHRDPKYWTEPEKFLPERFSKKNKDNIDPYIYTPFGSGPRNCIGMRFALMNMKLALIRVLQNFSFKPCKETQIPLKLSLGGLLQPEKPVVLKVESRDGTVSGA

| IC50 ([1]; activity level class) | inhibition at 10 µM [2] | melting point | IC50 [1] | Structure (SMILES) |
| --- | --- | --- | --- | --- |
| 1 to 100 nM | < 50% | 208 to 209 °C |  | O=C1N(Cc2ccccn2)c2ccccc2C12COc1cc3c(cc12)OCCO3 (stereo not drawn) [Example 4.41, 1′-(pyridin-2-ylmethyl)-2,3-dihydrospiro[furo[2,3-g][1,4]benzodioxine-8,3′-indol]-2′(1′H)-one] |
|  | > 50% | 124 to 126 °C | 100 to 1000 nM | O=C1N(CCC(O)C(F)(F)F)c2ccccc2C12COc1cc3c(cc12)CCO3 (stereo not drawn) [Example 14.5, 1′-(4,4,4-trifluoro-3-hydroxybutyl)-5,6-dihydrospiro[benzo[1,2-b:5,4-b′]difuran-3,3′-indol]-2′(1′H)-one] |
|  | > 50% | 102 to 125 °C | 100 to 1000 nM | CC(C)N1CCOC(CN2C(=O)C3(COc4cc5c(cc43)OCCO5)c3ccccc32)C1 (stereo not drawn) [Example 11.103, 1′-{[4-(1-methylethyl)morpholin-2-yl]methyl}-2,3-dihydrospiro[furo[2,3-g][1,4]benzodioxine-8,3′-indol]-2′(1′H)-one] |
| 1000 to 10000 nM | > 50% | 177 to 178 °C |  | Cc1nc2cc3c(cc2s1)C1(CO3)C(=O)N(Cc2ncc(Cl)n2C)c2ccccc21 (stereo not drawn) [Example 9.22, 1′-[(5-chloro-1-methyl-1H-imidazol-2-yl)methyl]-2-methylspiro[furo[2,3-f][1,3]benzothiazole-7,3′-indol]-2′(1′H)-one] |
| 1 to 100 nM | < 50% | 152 to 154 °C |  | CN1C(=O)C2(COc3cc4c(cc32)OCCO4)c2ccccc21 (stereo not drawn) [Example 5.22, 1′-methyl-2,3-dihydrospiro[furo[2,3-g][1,4]benzodioxine-8,3′-indol]-2′(1′H)-one] |
|  | > 50% | > 230 °C | 1000 to 10000 nM | Cc1cccc(NC(=O)c2ccccc2CN2C(=O)C3(COc4cc5c(cc43)CCO5)c3ccccc32)c1C (stereo not drawn) [Example 12.21, N-(2,3-dimethylphenyl)-2-[(2′-oxo-5,6-dihydrospiro[benzo[1,2-b:5,4-b′]difuran-3,3′-indol]-1′(2′H)-yl)methyl]benzamide] |
| 1000 to 10000 nM | < 50% | 222 to 225 °C |  | COc1cc2c(cc1F)C1(CO2)C(=O)Nc2ccccc21 (stereo not drawn) [Example 3.7, 5-fluoro-6-methoxyspiro[1-benzofuran-3,3′-indol]-2′(1′H)-one] |
| 1 to 100 nM | > 50% | 69 to 72 °C |  | N#Cc1ccc(CN2C(=O)C3(COc4cc5c(cc43)OCCO5)c3ccccc32)cc1 (stereo not drawn) [Example 4.96, 4-[(2′-oxo-2,3-dihydrospiro[furo[2,3-g][1,4]benzodioxine-8,3′-indol]-1′(2′H)-yl)methyl]benzonitrile] |
|  | < 50% | 93 to 95 °C | 1 to 100 nM | CN(C)c1ccc(CN2C(=O)C3(COc4cc5c(cc43)OCCO5)c3ccccc32)cn1 (stereo not drawn) [Example 32.1, 1′-{[6-(dimethylamino)pyridin-3-yl]methyl}-2,3-dihydrospiro[furo[2,3-g][1,4]benzodioxine-8,3′-indol]-2′(1′H)-one] |
| 100 to 1000 nM | < 50% | 131 to 133 °C |  | COc1cc2c(cc1F)C1(CO2)C(=O)N(CC2CCCCO2)c2ccccc21 (stereo not drawn) [Example 4.64, 5-fluoro-6-methoxy-1′-(tetrahydro-2H-pyran-2-ylmethyl)spiro[1-benzofuran-3,3′-indol]-2′(1′H)-one] |
| 100 to 1000 nM | > 50% | 228 to 230 °C |  | O=C1N(Cc2ccccn2)c2cccc(-c3cnc4ccccc4c3)c2C12COc1cc3c(cc12)OCCO3 (stereo not drawn) [Example 4.102, 1-(pyridin-2-ylmethyl)-4′-quinolin-3-yl-2,3-dihydrospiro[furo[2,3-g][1,4]benzodioxine-8,3′-indol]-2′(1′H)-one] |
| ≥ 10000 nM | < 50% | 240 to 242 °C |  | Cc1nc2cc3c(cc2o1)C1(CO3)C(=O)N(C(c2ccccc2)c2ccccc2)c2ccccc21 (stereo not drawn) [Example 2.14, 1′-(diphenylmethyl)-2-methylspiro[furo[2,3-f][1,3]benzoxazole-7,3′-indol]-2′(1′H)-one] |
|  | > 50% | 226 to 227 °C | 1 to 100 nM | O=C1N(Cc2ccc(O)cc2)c2ccccc2C12COc1cc3c(cc12)CCO3 (stereo not drawn) [Example 17, 1′-(4-hydroxybenzyl)-5,6-dihydrospiro[benzo[1,2-b:5,4-b′]difuran-3,3′-indol]-2′(1′H)-one] |
| 1000 to 10000 nM | < 50% | 151 to 153 °C |  | N#Cc1ccc2c(c1)OCC21C(=O)N(Cc2ccccn2)c2ccccc21 (stereo not drawn) [Example 4.105, 2′-oxo-1′-(pyridin-2-ylmethyl)-1′,2′-dihydrospiro[1-benzofuran-3,3′-indole]-6-carbonitrile] |
|  | < 50% | 211 to 213 °C | 1000 to 10000 nM | CCC(CC)CNC(=O)c1ccc(CN2C(=O)C3(COc4cc5c(cc43)CCO5)c3ccccc32)cc1 (stereo not drawn) [Example 12.45, N-(2-ethylbutyl)-4-[(2′-oxo-5,6-dihydrospiro[benzo[1,2-b:5,4-b′]difuran-3,3′-indol]-1′(2′H)-yl)methyl]benzamide] |
| 1000 to 10000 nM | > 50% | 257 to 259 °C |  | O=C1Nc2ccc(F)cc2C12COc1cc3c(cc12)CCO3 (stereo not drawn) [Example 3.4, 5′-fluoro-5,6-dihydrospiro[benzo[1,2-b:5,4-b′]difuran-3,3′-indol]-2′(1′H)-one] |
|  | > 50% | 45 to 48 °C | 1 to 100 nM | O=C1N(CCc2noc(C(F)(F)F)n2)c2ccccc2C12COc1cc3c(cc12)OCO3 (stereo not drawn) [Example 11.18, 1′-{2-[5-(trifluoromethyl)-1,2,4-oxadiazol-3-yl]ethyl}spiro[furo[2,3-f][1,3]benzodioxole-7,3′-indol]-2′(1′H)-one] |
|  | > 50% | 214 to 216 °C | 1000 to 10000 nM | Cc1ccc(F)c(NC(=O)c2ccccc2CN2C(=O)C3(COc4cc5c(cc43)CCO5)c3ccccc32)c1 (stereo not drawn) [Example 12.20, N-(2-fluoro-5-methylphenyl)-2-[(2′-oxo-5,6-dihydrospiro[benzo[1,2-b:5,4-b′]difuran-3,3′-indol]-1′(2′H)-yl)methyl]benzamide] |
| 1 to 100 nM | < 50% | 282 to 285 °C |  | O=C1Nc2cccc(F)c2C12COc1cc3c(cc12)OCCO3 (stereo not drawn) [Example 3.33, 4′-fluoro-2,3-dihydrospiro[furo[2,3-g][1,4]benzodioxine-8,3′-indol]-2′(1′H)-one] |
|  | > 50% | 183 to 185 °C | 1 to 100 nM | CC(C)(C)c1nc(CN2C(=O)C3(COc4cc5c(cc43)OCO5)c3ccccc32)no1 (stereo not drawn) [Example 11.23, 1′-[(5-tert-butyl-1,2,4-oxadiazol-3-yl)methyl]spiro[furo[2,3-f][1,3]benzodioxole-7,3′-indol]-2′(1′H)-one] |
|  | < 50% | 85 to 90 °C | 1 to 100 nM | CN1CCO[C@H](CN2C(=O)[C@@]3(COc4cc5c(cc43)OCCO5)c3ccccc32)C1 [Example 11.106, (8S)-1′-{[(2S)-4-methylmorpholin-2-yl]methyl}-2,3-dihydrospiro[furo[2,3-g][1,4]benzodioxine-8,3′-indol]-2′(1′H)-one] |
|  | > 50% | 87 to 88 °C | 1000 to 10000 nM | CC(C)CCN1C(=O)C2(COc3cc(O)c(C(=O)C(F)(F)F)cc32)c2ccccc21 (stereo not drawn) [Example 11.50, 6-hydroxy-1′-(3-methylbutyl)-5-(trifluoroacetyl)spiro[1-benzofuran-3,3′-indol]-2′(1′H)-one] |
| 1 to 100 nM | < 50% | 247 to 249 °C |  | O=C1N(Cc2ncccc2F)c2ccccc2C12COc1cc3c(cc12)OCCO3 (stereo not drawn) [Example 4.101, 1-[(3-fluoropyridin-2-yl)methyl]-2,3-dihydrospiro[furo[2,3-g][1,4]benzodioxine-8,3′-indol]-2′(1′H)-one] |
| 1000 to 10000 nM | < 50% | 230 to 232 °C |  | O=C1N(Cc2cccnc2)c2ccccc2C12COc1ccc3nonc3c12 (stereo not drawn) [Example 4.125, 1-(pyridin-3-ylmethyl)spiro[furo[3,2-e][2,1,3]benzoxadiazole-8,3′-indol]-2′(1′H)-one] |
| 1 to 100 nM | > 50% | 114 to 116 °C |  | O=C1N(Cc2nsc(Cl)n2)c2ccccc2C12COc1cc3c(cc12)OCO3 (stereo not drawn) [Example 6, 1′-[(5-chloro-1,2,4-thiadiazol-3-yl)methyl]spiro[furo[2,3-f][1,3]benzodioxole-7,3′-indol]-2′(1′H)-one] |
| 1000 to 10000 nM | < 50% | 206 to 207 °C |  | O=C1Nc2ccccc2C12COc1cc3nccnc3cc12 (stereo not drawn) [Example 3.51, spiro[furo[2,3-g]quinoxaline-8,3′-indol]-2′(1′H)-one] |
| 1 to 100 nM | > 50% | 192 to 193 °C |  | O=C1N(Cc2cc3cccc(F)c3o2)c2ccccc2C12COc1cc3c(cc12)CCO3 (stereo not drawn) [Example 9.8, 1′-[(7-fluoro-1-benzofuran-2-yl)methyl]-5,6-dihydrospiro[benzo[1,2-b:5,4-b′]difuran-3,3′-indol]-2′(1′H)-one] |
| 1000 to 10000 nM | < 50% | 197 to 198 °C |  | O=C1NCC(CN2C(=O)C3(COc4cc5c(cc43)CCO5)c3ccccc32)O1 (stereo not drawn) [Example 9.10, 1′-[(2-oxo-1,3-oxazolidin-5-yl)methyl]-5,6-dihydrospiro[benzo[1,2-b:5,4-b′]difuran-3,3′-indol]-2′(1′H)-one] |
